Earlier results on four molecules are cited in patent US20210338678A1, “BIOACTIVE VITAMIN COMBINATIONS” (BioVit, Inc., priority 2020, published 2021).

The conditions of series [1]: patients with type 2 diabetes, 16 weeks of treatment.
Series [2] relates to CD8+T lymphocytes and natural killer (NK) cell activity. The settings on record: vitamin B12-deficient patients.
Series [3] concerns H1N1 influenza vaccine response. The settings on record: mothers supplemented during pregnancy and postpartum.
Series [4] relates to acute and chronic pain and inflammation. The conditions noted are these: mice.

With `CN(C)C(=N)N=C(N)N` [metformin, Metformin], in series [1], the homocysteine result is recorded as “modest increase in homocysteine”; the “levels of folate and vitamin B12” value was “reduces levels of folate and vitamin B12”.

For `C/C1=C2/[N-][C@H]([C@H](CC(N)=O)[C@@]2(C)CCC(=O)NC[C@@H](C)OP(=O)([O-])O[C@H]2[C@@H](O)[C@@H](n3cnc4cc(C)c(C)cc43)O[C@@H]2CO)[C@]2(C)N=C(/C(C)=C3N=C(/C=C4N=C1[C@@H](CCC(N)=O)C\4(C)C)[C@@H](CCC(N)=O)[C@]\3(C)CC(N)=O)[C@@H](CCC(N)=O)[C@]2(C)CC(N)=O.[CH3-].[Co+3]` [methylcobalamin, Methylcobalamin], the “antibody response of the immune system” value in series [2] is “improves the antibody response of the immune system”.

Take Vitamin B12: the “H1N1 influenza vaccine response” value in series [3] was “improved H1N1 influenza vaccine response in mothers”. Turning to cyanocobalamin, the “control of acute and chronic neuropathic pain” value in series [4] was “controlling acute and chronic neuropathic pain”.
